Legend:
[1] = system: Stage IV–V 3D7 gametocytes; experiment: Gametocytocidal ATP-based bioluminescence assay (GC-ATP); type: cell-based, Plasmodium falciparum 3D7; conditions: Plasmodium falciparum, 3D7; 48h incubation; read-out: Pf late stage gametocyte (ATP depletion) IC50
Method: The metabolic viability of late stage gametocytes was determined using a gametocyte ATP bioluminescence assay. Stage IV–V 3D7 gametocyte cultures were double-purified by density gradient sedimentation over NycoPrep® followed by magnetic isolation. Then, parasites (50 µl per well containing 12,500 gametocytes) were added to compound pre-dispensed 384-well plates (781091, Greiner) and incubated at 37 °C for 48 h under 5% CO2/3% O2/92% N2. BacTiter-Glo® kit (G8231, Promega) was used to determine the ATP levels of viable parasites according to manufacturer’s instructions. After reagent addition (50 µl per well), luminescence of the plates was measured using a microplate reader (HTS counter Victor, Wallac).

[2] = system: P. falciparum female gametocytes; experiment: Pf DGFA wash-out format, female readout; type: cell-based; conditions: Plasmodium falciparum; 48h preincubation/wash-out
[3] = system: P. falciparum female gamete formation; experiment: Pf DGFA add-in format, female readout; type: cell-based; conditions: Plasmodium falciparum; 0h preincubation/add-in
Method: In profiling mode, the Pf DGFA was performed in 96-well plates[23] in wash-out and add-in formats to aid manual manipulation steps. In the wash-out format, gametocytes were incubated for 24 h with test compounds in round-bottomed 96 well plates and then culture medium replaced three times over 6 h, to remove as much of the compound as possible from the well. […] In add-in format, gametocytes were added directly to flat-bottomed 96-well plates containing test compounds, ookinete medium and anti-Pfs25.

[4] = system: P. berghei strain CTRPpGFP early mosquito stage (ookinete) development; experiment: P. berghei ookinete development assay (Pb ODA); type: cell-based, Plasmodium berghei; conditions: for IC50: Plasmodium berghei, 24h incubation
Method: All mouse procedures were performed in accordance with the UK Animals (Scientific Procedures) Act (PPL 70/7185) and approved by the Imperial College Animal Welfare and Ethical Review Body (AWERB). The ability of test compounds to inhibit P. berghei early mosquito stage development was tested in the Ookinete Development Assay[37] with a few exceptions. Anaesthetised 6- to 8-week-old female Tucks Ordinary (TO) mice infected with P. berghei strain CTRPpGFP[38] were rapidly exsanguinated by cardiac puncture and 500 µl of blood diluted in 25 ml of ookinete medium supplemented with 20% foetal bovine serum. Immediately the blood/medium mixture was dispensed by multichannel pipette into 384 well plates containing pre-plated test compounds. 10 µM cycloheximide and DMSO were used as the positive and negative controls, respectively. Plates were stored in the dark in a humidified incubator at 18 °C for 24 h. Ookinete production was imaged by fluorescence microscopy of GFP expression under the ookinete-specific CTRP promoter using a Nikon Ti-E widefield microscope and ×10 objective. Ookinete production was quantified using ICY and percentage inhibition calculated as above with reference to positive and negative controls.

[5] = system: P. berghei-ANKA-GFP-Luc-SMCON sporozoites in HepG2-A16-CD81EGFP cells; experiment: P. berghei liver stage assay (luciferase sporozoite HepG2 invasion); type: cell-based; conditions: Plasmodium berghei, 48h incubation, read-out: Pb Liver invasion assay IC50
Method: (§1) Compound inhibition of P. berghei sporozoite liver infection was assessed in a high-throughput luciferase assay. 1536-well plates (789173-F, Greiner Bio-One) were pre-seeded with 5 µl HepG2-A16-CD81^EGFP cells grown in DMEM (11965–092, Invitrogen) containing 10% FBS (35–011-CV, Corning) and 1× Pen Strep Glutamine (10378–016, Invitrogen). Then, 50 nl of compound in DMSO was dispensed in 12-point serial dilution dose-response format (50 µM to 2.82 × 10^−4 µM), and incubated overnight.A. stephensi mosquitoes infected with P. berghei-ANKA-GFP-Luc-SMCON (Pb-Luc)[41] sporozoites bearing the antifolate-resistance-conferring Toxoplasma gondii dihydrofolate reductase-thymidylate synthase selectable marker, pyR2. After dissection, ~1000 sporozoites in 5 µl screening media (DMEM, 11965–092, Invitrogen; 5% FBS, 35–011-CV, Corning; 5x Pen Strep Glutamine, 10378–016, Invitrogen) were added per well and incubated for 48 h (37 °C, 5% CO2). Bioluminescence was measured using an EnVision microplate reader (Perkin Elmer), following the addition of 2 µl per well of Bright-Glo™ (Promega). Compound toxicity against HepG2 cells was determined in parallel by measuring cellular ATP levels reported by luciferase activity. Methods were similar to the P. berghei liver stage assay, except for the addition of CellTiter-Glo® (Promega) as a detection reagent. DMSO (0.5%) was used as a negative control in both assays, with Atovaquone (5 µM) and Puromycin (10 µM) acting as positive controls in the P. berghei and toxicity assays, respectively.

[6] = system: HepG2 cells; experiment: HepG2 toxicity (CellTiter-Glo, parallel to liver stage assay); type: cell-based, human; conditions: human, 48 h
Method: as §1

[7] = target: T1, recombinant luciferase (Photinus pyralis) (Photinus pyralis, UniProt P08659); experiment: Recombinant luciferase inhibition assay; type: biochemical; conditions: 1h incubation; read-out: Recombinant luciferase assay IC50
T1 construct: purchased Promega E1701
T1 sequence (P08659 whole entry): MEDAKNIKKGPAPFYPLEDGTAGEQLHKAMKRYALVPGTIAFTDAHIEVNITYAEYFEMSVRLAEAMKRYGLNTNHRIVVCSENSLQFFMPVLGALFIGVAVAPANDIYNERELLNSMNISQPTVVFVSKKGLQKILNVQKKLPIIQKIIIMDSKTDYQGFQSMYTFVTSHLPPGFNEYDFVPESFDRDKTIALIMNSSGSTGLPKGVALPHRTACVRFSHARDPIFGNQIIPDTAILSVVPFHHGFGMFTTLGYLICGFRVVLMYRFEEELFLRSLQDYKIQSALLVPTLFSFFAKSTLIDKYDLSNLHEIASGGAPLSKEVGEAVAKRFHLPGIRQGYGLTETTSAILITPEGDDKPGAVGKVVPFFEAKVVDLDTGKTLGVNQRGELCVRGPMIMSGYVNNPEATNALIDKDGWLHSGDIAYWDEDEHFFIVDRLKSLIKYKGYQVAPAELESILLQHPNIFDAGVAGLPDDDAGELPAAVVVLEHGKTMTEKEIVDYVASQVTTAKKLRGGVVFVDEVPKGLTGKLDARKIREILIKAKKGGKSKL
Method: A counter-screen to the P. berghei liver stage assay was run against recombinant luciferase (Photinus pyralis) to measure the intrinsic bioluminescence inhibition from select compounds. Briefly, compounds were plated in 12-point serial dose response (50–2.82 × 10^−4 µM) in 1536-well opaque-bottom plates (789173-F, Greiner Bio-One). A 20 pM QuantiLum® Recombinant Luciferase (E1701, Promega) containing solution was made in screening media (DMEM, 11965–092, Invitrogen; 5% FBS, 35–011-CV, Corning; 5x Pen Strep Glutamine, 10378–016, Invitrogen), and 8 µl were added to each well. After 1 h incubation at room temperature, 2 µl of Bright-Glo™ (E2610, Promega) were dispensed per well, and bioluminescence was immediately measured using the EnVision microplate reader (PerkinElmer). DMSO (0.5%) and Luciferase Inhibitor-2 (9.8 µM) (119114, MilliporeSigma) served as negative and positive controls, respectively.

[8] = system: P. falciparum stage V male gametocytes (male gamete formation); experiment: P. falciparum dual gamete formation assay (Pf DGFA), male readout (exflagellation), 48 h carry-over format; type: cell-based, Plasmodium falciparum NF54; conditions: Plasmodium falciparum, 24h preincubation/carry-over
[9] = system: HepG2 human cells; set-up: method as in http://dx.doi.org/10.6019/CHEMBL3507680; conditions: ref http://dx.doi.org/10.6019/CHEMBL3507680; cited from earlier work

Structure (SMILES)	IC50 [1] [µM]	IC50 [2] [µM]	IC50 [3] [µM]	IC50 [4] [µM]	IC50 [5] [µM]	Human HepG2 assay TOX50 [6] [µM]	IC50 [7] [µM]	IC50 [8] [µM]	%Inh HepG2 @10uM [9] [%]	activity in P. berghei ookinete development assay ([4]; profiling)
CC(=O)c1c(C)nn(CC(=O)Nc2ccc(Br)cc2)c1C [DDD01027599]	1.61	3.11	> 10	> 12.5	7.48	25.00	> 50	4.03	4.72	
O=S(=O)(NCC1(O)CCOc2ccccc21)c1ccccc1F (centres unmarked) [DDD01028073]	> 10	> 12.5	> 10	0.3	> 50	>50.0	> 50	0.58	-4.25	
Cc1ccc(S(=O)(=O)NCC2(O)CCOc3ccccc32)s1 (centres unmarked) [DDD01028074]	> 10	> 12.5	> 10	0.29	> 50	>50.0	> 50	0.79	-4.01	
O=S(=O)(NCC1(O)CCOc2ccccc21)c1ccc(Cl)s1 (centres unmarked) [DDD01028075]	> 10	> 12.5	> 10	0.34	> 50	>50.0	> 50	1.32	-6.65	
O=S(=O)(NCC1(O)CCOc2ccccc21)c1ccccc1Br (centres unmarked) [DDD01028076]	> 10	> 12.5	> 10	0.22	> 50	>50.0	> 50	0.48	-0.163	
O=S(=O)(NCC1(O)CCOc2ccccc21)c1cccs1 (centres unmarked) [DDD01035879]	> 10	> 12.5	> 10	0.29	> 50	>50.0	> 50	0.89	3.15	
O=S(=O)(NCC1(O)CCOc2ccccc21)c1ccc(Br)s1 (centres unmarked) [DDD01035881]	> 10	> 12.5	> 10	0.11		>50.0	> 50	0.26	3.29	
CC(c1ccco1)N(C(=O)CNc1ccc(C#N)cc1)C1CC1 (centres unmarked) [DDD01062645]	> 10	> 12.5	5.05	> 12.5		>50.0	> 50	> 12.5	4.38	inactive
CC(NCC1CCN(CCO)CC1)c1ccc(OC(F)(F)F)cc1 (centres unmarked) [DDD01073716]	> 10	1.22	> 10	> 25	15.5	>50.0	> 50	11	-2.01	
CN1CCC(NCC(O)c2cccc(OCc3ccccc3)c2)CC1 (centres unmarked) [DDD01079164]	6.29	1.07	> 10	> 25	16.5	38.40	> 50	6.04	4.18	
OC1(CN2CCC(Oc3cccc(C(F)(F)F)c3)CC2)CCNC1 (centres unmarked) [DDD01245291]	> 10	1.51	> 10	> 25	6.06	21.70	> 50	5.99	-7.31	
CC(C)CN1CCn2nc(CNc3ncnc4[nH]ccc34)cc2C1 [DDD01249504]	> 10	> 25	> 10	> 25	> 50	>50.0	> 50	1.83	7.26	
Cc1nn(C)c(Oc2ccc(Cl)cc2)c1CN1CCC(CN)C1 (centres unmarked) [DDD01254274]	6.86	> 25	> 10	> 25	> 50	>50.0	> 50	> 25	-8.55	

Reference: PMC6143625, “A high throughput screen for next-generation leads targeting malaria parasite transmission” (Nature Communications, 2018)
